pIC50: −log10 of the molar value. Structures can show the parent of a compound that is named as a salt.
Experiments:
[1] = system: HIV Tat-regulated transactivation; assay: cells; assay type: cell-based; conditions: for Inhibition (%) of HIV Tat-regulated Transactivation in COS Cells: average of three experiments
Protocol: The COS cells were co-transfected with a Tat-producing plasmid and a plasmid containing the HIV LTR linked to the SeAP reporter gene. Transfected cells were treated with various concentrations of 5b P4N. After 48 h, aliquots of media were removed and analysis of SeAP activity was performed. The percent inhibition of SeAP activity by 5b P4N ? was calculated in comparison with the percent of growth inhibition of untransfected COS cells by P4N ?
The medium used for dilution of compounds and maintenance of cultures during the assay was the same as described above. Cultures were maintained in disposable tissue culture labware at 37° C. in a humidified atmosphere of CO2 (5.0%) in air. Compounds were dissolved as stock solutions in water or dimethyl sulfoxide (DMSO) at the concentration of 10 mM. The stock solutions were diluted with H2O (5a-d) or DMSO (6a,b and 7) and dilute by medium to the desired concentration by a 30-s vortex just before addition into the cell culture. Triplicate cell samples were seeded at density of ˜1.5×10^4 cell per well in Libro 24-well flat-bottom culture dishes (17-mm diameter), which were incubated for 24 h until they reached 50% confluence. The cells were cotransfected by the calcium phosphate procedure with DNA from plasmids pBC12/CMV/t2 (coding for Tat function, 0.20 μg/well) and pBC12/HIV/SeAP (0.40 μg/well). Cells and DNAs were kept in contact for 6.0 h; then the medium was aspirated and replaced by 500 μL of medium containing the test compound. The compound-treated cells were then incubated for additional 48 h. At the end of incubation, an aliquot of cell culture medium was removed and SeAP activities were analyzed by spectrametric method.^20 The sample of culture medium were heated at 65° C. for 5.0 min to inactivate endogenous phosphatases selectively (SeAP is thermal stable). The buffer solution of 2×SeAP (100 μL, 1.0 M diethanolamine, pH 9.8; 0.50 mM MgCl2; 10 mM L-homoarginine) was added to the culture medium sample (100 μL) in a 96-well flat-bottom culture dish (Corning). Then, the substrate solution ([…], 120 mM, p-nitrophenyl phosphate dissolved in 1×SeAP buffer) was dispensed into each well containing the reaction mixture. The absorbance at wavelength 405 nm specific for the hydrolysis product was read at 2.5 min intervals at 37° C. over the course of 60 min on an EL340i microplate reader (Bio-tek Instruments) with 5 s automatic shaking before each reading.
Two plasmid constructs^19 were used to test the effect of synthesized NDGA derivatives on Tat-regulated HIV transactivation as described previously.^12,13,19 The plasmid constructs included a cytomegalovirus (CMV) promoter driven tat gene and SP1 regulated HIV LTR promoter driven reporter gene (i.e., SeAP). A standard SeAP assay in the absence of drug was initially run to find out efficiency of transfection.

[2] = Stability in aqueous solution (time dependent UV spectra); assay type: physicochemical; conditions: HCl salts, 28 days at 20° C., FIG. 1
Protocol: FIG. 1: Stability of Two NDGA Derivatives G4N and P4N(HCl salts) in Aqueous Solution. Time Dependent Changes in UV spectra showing (a) G4N is unstable and (b) meso-2,3-dimethyl-1,4-bis(3,4-[2-piperidino)ethoxyphenyl])butane (P4N) (compound 5b in Scheme 1) (day 1, 2, 8, 13, 28) is stable in Milli-Q water after 28 days at 20° C.
The new NDGA derivatives (Scheme 1) were found stable in aqueous solution; >99% of these compounds remained intact after 28 days (see FIG. 1(b)). In a sharp contrast, >96% G4N (4) decomposed in aqueous solution within 24 h (see FIG. 1(a)).

[3] = system: Vero cell (African green monkey kidney cells); assay: MTT-based cytotoxicity / proliferation assay, Vero; assay type: cell-based; conditions: 48 hrs, 37° C.
Protocol: The cytotoxicity of P4N against Vero cells and human cancer cells HEP3B, HT29 and MCF7 was analyzed using an MTT [3-(4,5-dimethylthiazol-2-yl)-2,5-diphenyltetrazolium bromide]-based assay (Sigma). The absorbance of OD570 was a measurement of formazon crystals solubilized in DMSO from metabolically active cells. Procedures were discussed in Huang R C C, et al. in Antiviral Res 58, 57-64 2003.^10
We have previously shown that M4N arrests tumor cells growth at G2-M phase of the cell cycle by reducing the level of Cdc2 protein and kinase activity,^17,18 and induces apoptosis by suppressing survivin gene expression and protein stability and activating the mitochondrial apoptosis pathway.^17 M4N is able to reverse the multidrug resistance by inhibiting the Sp1-regulated MDR1 gene expression and preventing the synthesis of p-glycoprotein (Pgp).^24 To investigate the effect of water soluble NDGA derivative P4N on growth of the transformed cells, four cell lines, Vero cell (African green monkey kidney cells), human liver cancer line Hep3B, colon cancer cell line HT29, and human breast cancer line MCF-7 were selected for testing. The Vero cell line is aneuploid.

C[C@H](Cc1ccc(OCCN2CCCCC2)c(OCCN2CCCCC2)c1)[C@@H](C)Cc1ccc(OCCN2CCCCC2)c(OCCN2CCCCC2)c1 [Compound 5b, meso-2,3-Dimethyl-1,4-bis(3,4-[2-(piperidino)ethoxyphenyl])butane Tetrakishydrochloride Salt]
Inhibition (%) of HIV Tat-regulated Transactivation in COS Cells ([1]; 0.10 μM): 8.7% | Inhibition (%) of HIV Tat-regulated Transactivation in COS Cells ([1]; 0.25 μM): 4.3% | Inhibition (%) of HIV Tat-regulated Transactivation in COS Cells ([1]; 0.50 μM): 29.0% | Inhibition (%) of HIV Tat-regulated Transactivation in COS Cells ([1]; 1.0 μM): 56.8% | Inhibition (%) of HIV Tat-regulated Transactivation in COS Cells ([1]; 2.5 μM): 90.6% | Inhibition (%) of HIV Tat-regulated Transactivation in COS Cells ([1]; 5.0 μM): 97.0% | Inhibition (%) of HIV Tat-regulated Transactivation in COS Cells ([1]; 10 μM): 99.8% | Inhibition (%) of HIV Tat-regulated Transactivation in COS Cells ([1]; 20 μM): 100% | Inhibition (%) of HIV Tat-regulated Transactivation in COS Cells ([1]; 40 μM): 100% | Inhibition (%) of HIV Tat-regulated Transactivation in COS Cells ([1]; 80 μM): 100% | Inhibition (%) of HIV Tat-regulated Transactivation in COS Cells ([1]; 100 μM): 97.7% | pIC50 ([1]; COS cells, SeAP, mean of triplicate determinations, read-out: IC50, HIV Tat-regulated transactivation): 6.06 | HIV transactivation at the concentration without effect on cos cell growth ([1]; ≦1 μM, FIG. 9): fully inhibited | Stability in Milli-Q water (UV spectra) [2]: stable | Inhibition of rapidly dividing Vero cells ([3]; FIG. 11): extremely effective | Inhibition of stationary phase vero cells ([3]; FIG. 11A): much less so

From patent publication US8420692B1, “Heterocyclic and carbonate derivatives of NDGA and their use as new anti-HIV and anti-cancer agents” (The Johns Hopkins University, priority 2006, dated 2013)
